Test results: patent EP4782445A1, “CDK KINASE INHIBITOR AND USE THEREOF” (Abbisko Therapeutics Co., Ltd., priority 2023, dated 2025)

Assays:
CDK6/cyclin D3 = target: T1, CDK6/cyclin D3 (Homo sapiens, UniProt Q00534); test: In vitro biochemical kinase activity assay for CDK6/cyclin D3 (HTRF)
T1 construct: purchased Carna
Protocol: III. In Vitro Biochemical Kinase Activity Assay for CDK6/Cyclin D3
The inhibitory effects of the compounds of the present invention on CDK6/cyclin D3 kinase activity were determined using an HTRF assay. The experimental process was as follows: 1. The kinase reaction was carried out in a 384-well plate. 0.02 nM CDK6/cyclin D3 (Carna), 1 mM (or 100 µM) ATP, and 0.3 µM biotin-labeled substrate protein Rb-biotin (Cisbio) were incubated at 30°C for 60 min in a buffer system composed of 5 mM MgCl2, 1 mM DTT, and basal kinase buffer (Cisbio). 2. The detection solution (Cisbio, containing reagents that specifically recognize phosphorylated Rb and Rb-biotin proteins, respectively) was added. The plate was then sealed with a film (to protect from light and volatilization) and incubated at 25°C for 60 min. 3. The plate was transferred to an Envision plate reader to detect FRET signals. (The 665/615 ratio was calculated by reading the emission at 665 nm and 615 nM, respectively.) 4. The IC50 values were determined by analyzing the inhibition at varying compound concentrations using Model 205 in the XLfit software.

CDK4/cyclin D3 = target: T2, CDK4/cyclin D3 (Homo sapiens, UniProt P11802); test: In vitro biochemical kinase activity assay for CDK4/cyclin D3 (HTRF)
T2 construct: purchased Carna
Protocol: II. In Vitro Biochemical Kinase Activity Assay for CDK4/Cyclin D3
The inhibitory effects of the compounds of the present invention on CDK4/cyclin D3 kinase activity were determined using an HTRF assay. The experimental process was as follows: • 1. The kinase reaction was carried out in a 384-well plate. 4.9 nM CDK4/cyclin D3 (Carna), 1 mM (or 80 µM) ATP, and 0.3 µM biotin-labeled substrate protein Rb-biotin (Cisbio) were incubated at 30°C for 90 min in a buffer system composed of 50 mM MgCl2, 1 mM DTT, and basal kinase buffer (Cisbio). • 2. The detection solution (Cisbio, containing reagents that specifically recognize phosphorylated Rb and Rb-biotin proteins, respectively) was added. The plate was then sealed with a film (to protect from light and volatilization) and incubated at 25°C for 60 min. • 3. The plate was transferred to an Envision plate reader to detect FRET signals. (The 665/615 ratio was calculated by reading the emission at 665 nm and 615 nM, respectively.) • 4. The IC50 values were determined by analyzing the inhibition at varying compound concentrations using Model 205 in the XLfit software.

[1] = data marked with *: 1 mM ATP in Step 1
[2] = unmarked data: 100 µM ATP in Step 1

T1 sequence (Q00534 whole entry): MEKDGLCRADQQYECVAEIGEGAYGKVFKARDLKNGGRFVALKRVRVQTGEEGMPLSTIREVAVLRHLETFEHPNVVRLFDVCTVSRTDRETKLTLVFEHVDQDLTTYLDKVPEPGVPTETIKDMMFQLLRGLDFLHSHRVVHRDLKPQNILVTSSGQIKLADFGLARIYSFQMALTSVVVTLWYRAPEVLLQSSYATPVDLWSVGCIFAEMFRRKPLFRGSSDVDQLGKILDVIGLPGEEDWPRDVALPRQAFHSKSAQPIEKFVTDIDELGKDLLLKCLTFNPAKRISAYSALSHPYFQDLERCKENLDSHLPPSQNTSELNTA
T1 sequence (P30281 whole entry partner): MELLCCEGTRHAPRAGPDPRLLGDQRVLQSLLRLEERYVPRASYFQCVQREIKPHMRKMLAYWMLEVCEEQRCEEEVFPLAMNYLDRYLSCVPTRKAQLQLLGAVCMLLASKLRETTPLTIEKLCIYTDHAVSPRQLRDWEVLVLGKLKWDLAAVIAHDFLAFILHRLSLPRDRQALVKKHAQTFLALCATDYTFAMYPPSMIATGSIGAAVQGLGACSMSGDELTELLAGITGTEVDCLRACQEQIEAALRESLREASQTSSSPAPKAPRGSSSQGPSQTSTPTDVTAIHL
T2 sequence (P11802 whole entry): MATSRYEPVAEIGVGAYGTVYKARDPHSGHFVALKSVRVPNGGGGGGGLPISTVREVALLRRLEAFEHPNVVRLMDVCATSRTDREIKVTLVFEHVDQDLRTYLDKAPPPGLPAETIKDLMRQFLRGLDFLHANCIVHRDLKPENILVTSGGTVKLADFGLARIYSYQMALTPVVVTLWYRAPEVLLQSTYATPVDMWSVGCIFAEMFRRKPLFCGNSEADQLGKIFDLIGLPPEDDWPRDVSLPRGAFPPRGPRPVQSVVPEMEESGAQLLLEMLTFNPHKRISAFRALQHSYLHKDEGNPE
T2 sequence (P30281 whole entry partner): as the sequence (P30281 whole entry partner) above

| SMILES | IC50 (CDK6/cyclin D3; [1]) [nM] | IC50 (CDK4/cyclin D3; [1]) [nM] | IC50 (CDK6/cyclin D3; [2]) [nM] | IC50 (CDK4/cyclin D3; unmarked data: 80 µM ATP in Step 1) [nM] |
| --- | --- | --- | --- | --- |
| Cc1ncc(C#Cc2nc(N[C@@H]3CCOC[C@H]3O)ncc2Cl)n1C(C)C [Example 79, (3 S,4R)-4-((5-chloro-4-((1-isopropyl-2-methyl-1H-imidazol-5-yl)ethynyl)pyrimidin-2-yl)amino)tetrahydro-2H-pyran-3-ol] | 179 | 17.2 | – | – |
| CCN1CC2(C1)CN(c1ccc(Nc3ncc(Cl)c(C#Cc4cnc(C)n4C(C)C)n3)nc1)C2 [Example 80, 5-chloro-N-(5-(6-ethyl-2,6-diazaspiro[3.3]heptan-2-yl)pyridin-2-yl)-4-((1-isopropyl-2-methyl-1H-imidazol-5-yl)ethynyl)pyrimidin-2-amine] | 12 | 2.65 | – | – |
| CCN1CC2(C1)CN(c1ccc(Nc3ncc(F)c(C#Cc4cnc(C)n4C(C)C)n3)nc1)C2 [Example 81, N-(5-(6-ethyl-2,6-diazaspiro[3.3]heptan-2-yl)pyridin-2-yl)-5-fluoro-4-((1-isopropyl-2-methyl-1H-imidazol-5-yl)ethynyl)pyrimidin-2-amine] | 59.1 | 9.86 | – | – |
| CC(C)c1c(C#Cc2nc(Nc3ccc(N4CC5(CN(CCF)C5)C4)cn3)ncc2F)cnn1C [Example 82, 5-Fluoro-N-(5-(6-(2-fluoroethyl)-2,6-diazaspiro[3.3]heptan-2-yl)pyridin-2-yl)-4-((5-isopropyl-1-methyl-1H-pyrazol-4-yl)ethynyl)pyrimidin-2-amine] | 29.5 | 3.25 | – | – |
| CCN1CCN(Cc2ccc(Nc3ncc(Cl)c(C#Cc4cnc(C(C)(C)O)n4C(C)C)n3)nc2F)CC1 [Example 84, 2-(5-((5-chloro-2-((5-((4-ethylpiperazin-1-yl)methyl)-6-fluoropyridin-2-yl)amino)pyrimidin-4-yl)ethynyl)-1-isopropyl-1H-imidazol-2-yl)propan-2-ol] | 48.9 | 7.44 | – | – |
| CC(C)n1c(C#Cc2nc(N[C@@H]3CCOC[C@H]3C)ncc2Cl)cnc1C(C)(C)O [Example 86, 2-(5-((5-chloro-2-(((3 S,4R)-3-methyltetrahydro-2H-pyran-4-yl)amino)pyrimidin-4-yl)ethynyl)-1-isopropyl-1H-imidazol-2-yl)propan-2-ol] | – | – | 1970 | 480 |
| CC(=O)N[C@@H]1COCC[C@H]1Nc1ncc(Cl)c(C#Cc2cnc(C(C)(C)O)n2C(C)C)n1 [Example 87, N-((3 S,4R)-4-((5-chloro-4-((2-(2-hydroxypropan-2-yl)-1-isopropyl-1H-imidazol-5-yl)ethynyl)pyrimidin-2-yl)amino)tetrahydro-2H-pyran-3-yl)acetamide] | 9360 | 3970 | – | – |
| CC(C)n1c(C#Cc2nc(N[C@@H]3CCOC[C@H]3O)ncc2Br)cnc1C(C)(C)O [Example 88, (3S,4R)-4-((5-bromo-4-((2-(2-hydroxypropan-2-yl)-1-isopropyl-1H-imidazol-5-yl)ethynyl)pyrimidin-2-yl)amino)tetrahydro-2H-pyran-3-ol] | – | 12.6 | 51.1 | – |
| CC(=O)N1CC2(C1)CN(c1ccc(Nc3ncc(F)c(C#Cc4cnn(C)c4C(C)C)n3)nc1)C2 [Example 89, 1-(6-(6-((5-fluoro-4-((5-isopropyl-1-methyl-1H-pyrazol-4-yl)ethynyl)pyrimidin-2-yl)amino)pyridin-3-yl)-2,6-diazaspiro[3.3]heptan-2-yl)ethan-1-one] | 44.9 | 16.2 | – | – |
| CC(C)n1c(C#Cc2nc(N[C@@H]3CCOC[C@H]3O)ncc2Cl)cnc1C1(O)CCCC1 [Example 90, (3 S,4R)-4-((5-chloro-4-((2-(1-hydroxycyclopentyl)-1-isopropyl-1H-imidazol-5-yl)ethynyl)pyrimidin-2-yl)amino)tetrahydro-2H-pyran-3-ol] | 253 | 23 | – | – |
| CC(C)n1c(C#Cc2nc(N[C@@H]3CCOC[C@H]3F)ncc2Cl)cnc1C(C)(C)O [Example 91, 2-(5-((5-chloro-2-(((3 S,4R)-3-fluorotetrahydro-2H-pyran-4-yl)amino)pyrimidin-4-yl)ethynyl)-1-isopropyl-1H-imidazol-2-yl)propan-2-ol] | 333 | 88.2 | – | – |
| COC1COCC[C@H]1Nc1ncc(Cl)c(C#Cc2cnc(C(C)(C)O)n2C(C)C)n1 (stereo partly drawn) [Example 92, 2-(5-((5-chloro-2-(((4R)-3-methoxytetrahydro-2H-pyran-4-yl)amino)pyrimidin-4-yl)ethynyl)-1-isopropyl-1H-imidazol-2-yl)propan-2-ol] | 520 | 99.7 | – | – |
| CC(C)c1c(C#Cc2nc(Nc3ccc(N4CC5(CN(C)C5)C4)cn3)ncc2F)cnn1C [Example 93, 5-fluoro-4-((5-isopropyl-1-methyl-1H-pyrazol-4-yl)ethynyl)-N-(5-(6-methyl-2,6-diazaspiro[3 .3]heptan-2-yl)pyridin-2-yl)pyrimidin-2-amine] | 33.7 | 7.28 | – | – |
| CC(C)n1c(C#Cc2nc(Nc3ccc(N4CCN(C)CC4=O)cn3)ncc2Cl)cnc1C(C)(C)O [Example 94, 1-(6-((5-chloro-4-((2-(2-hydroxypropan-2-yl)-1-isopropyl-1H-imidazol-5-yl)ethynyl)pyrimidin-2-yl)amino)pyridin-3-yl)-4-methylpiperazin-2-one] | 17.6 | 5.53 | – | – |
| CC(C)n1c(C#Cc2nc(N[C@@H]3CCOC[C@H]3O)ncc2F)cnc1C(C)(C)O [Example 95, (3 S,4R)-4-((5-fluoro-4-((2-(2-hydroxypropan-2-yl)-1-isopropyl-1H-imidazol-5-yl)ethynyl)pyrimidin-2-yl)amino)tetrahydro-2H-pyran-3-ol] | 829 | 117 | – | – |
| CC(C)n1c(C#Cc2nc(N[C@@H]3CCOC[C@H]3O)ncc2Cl)cnc1CN1CCC[C@@H](C#N)C1 [Example 98, (R)-1-((5-((5-chloro-2-(((3 S,4R)-3-hydroxytetrahydro-2H-pyran-4-yl)amino)pyrimidin-4-yl)ethynyl)-1-isopropyl-1H-imidazol-2-yl)methyl)piperidin-3-carbonitrile] | 198 | 8.08 | – | – |
| CC(C)n1c(C#Cc2nc(N[C@H]3CC[C@H](NS(C)(=O)=O)CC3)ncc2Cl)cnc1C(C)(C)O [Example 99, N-((1R,4R)-4-((5-chloro-4-((2-(2-hydroxypropan-2-yl)-1-isopropyl-1H-imidazol-5-yl)ethynyl)pyrimidin-2-yl)amino)cyclohexyl)methanesulfonamide] | 190 | 28.1 | – | – |
| CC(C)n1c(C#Cc2nc(Nc3ccc(C(=O)N(C)C)cn3)ncc2Cl)cnc1C(C)(C)O [Example 100, 6-((5-chloro-4-((2-(2-hydroxypropan-2-yl)-1-isopropyl-1H-imidazol-5-yl)ethynyl)pyrimidin-2-yl)amino)-N,N-dimethylnicotinamide] | 25.9 | 6.69 | – | – |
| CC(C)n1c(C#Cc2nc(N[C@@H]3CCOC[C@H]3C#N)ncc2Cl)cnc1C(C)(C)O [Example 101, (3R,4R)-4-((5-chloro-4-((2-(2-hydroxypropan-2-yl)-1-isopropyl-1H-imidazol-5-yl)ethynyl)pyrimidin-2-yl)amino)tetrahydro-2H-pyran-3-carbonitrile] | 4770 | 786 | – | – |
| CC(C)n1c(C#Cc2nc(N[C@@H]3CCOC[C@H]3O)ncc2Cl)cnc1CN1CCC[C@H](C#N)C1 [Example 103, (S)-1-((5-((5-chloro-2-(((3 S,4R)-3-hydroxytetrahydro-2H-pyran-4-yl)amino)pyrimidin-4-yl)ethynyl)-1-isopropyl-1H-imidazol-2-yl)methyl)piperidin-3-carbonitrile] | 256 | 11.9 | – | – |
